Measured values taken from patent US20250262214A1, “INTERMITTENT DOSING REGIMEN FOR AZENOSERTIB IN TREATING CANCER” (Zeno Management, Inc., priority 2022, published 2025).
Entries after “also recorded” stand apart in the source; their conditions may differ.

Legend:
[1] = tested on: breast ductal carcinoma HCC1569; experiment: Breast ductal carcinoma HCC1569 model, tumor volume; format: in vivo, human
Protocol: In an exemplary breast ductal carcinoma HCC1569 model, Azenosertib was administered at a dose of about 100 mg/kg at intermittent dosing regimen of 3 cycles of 4 days on/3 days off (4/3) and 3 days on/4 days off (3/4) and compared with a lower continuous dose (e.g., 60 mg/kg). Tumor volume change was plotted in FIG. 1G and corresponding change in body weight in FIG. 1H until about 24 days post-initiation of treatment.

[2] = molecular target: T1, Wee1 (Homo sapiens, UniProt P30291); experiment: PK/PD correlation, Wee1 target engagement (p-CDK1 in skin biopsies); format: in vivo
T1 construct: from tissue; host or cells: skin biopsies of treated subjects
Excerpt: CDK1 phosphorylation (pCDK-1) is mediated by Wee1. It is contemplated that Wee1 inhibition by Azenosertib results in pCDK1 inhibition.

[3] = tested on: MDA-MB-468 triple negative breast cancer tumor model; experiment: MDA-MB-468 triple negative breast cancer tumor model, tumor growth inhibition; format: in vivo; details: Azenosertib alone, 60 mg/kg
Protocol: In vivo exploration of dose and schedule of Azenosertib and PARPi (niraparib, talazoparib) including exploration of alternating dosing was evaluated.

[4] = tested on: ovarian cancer and uterine serous carcinoma (USC); experiment: Phase 1a/1b Azenosertib monotherapy study, tumor response (RECIST 1.1); format: in vivo, human
Protocol: (§1) In this example, a Phase 1a dose escalation and Phase 1b dose expansion clinical study was carried out to evaluate the safety and pharmacokinetics (PK), i.e. steady state exposure (AUC0-24) and concentration maximum (Cmax) of Azenosertib monotherapy.
(§2) In some cohorts, a phase 1a dose escalation was carried out starting at doses below 200 mg, escalating to 200 mg, 300 mg, 350 mg, 400 mg, and 450 mg total daily dose in continuous dosing regimen. The dose used in Phase 1b was 300 mg QD.
(§3) In some cohorts, a phase 1a dose escalation was carried out starting at doses of 350 mg, 400 mg, 450 mg and 500 mg total daily dose at a 5:2 or 4:3 dosing regimen. The doses used in Phase 1b were 350 mg and 400 mg at 5:2 dosing regimen.
Tumor assessments (per RECIST 1.1) were carried out every 2 cycles (6 weeks) in subjects recruited in the study. There were no biomarker requirements to enroll in the study; nor were there any prior therapy requirements. Individuals in the cohorts represented multiple tumor types (FIG. 9A). Heavily pretreated subjects with advanced solid tumors were included in continuous and intermittent dosing cohorts (Table 6).
51 subjects were enrolled with Uterine Serous Carcinoma (USC) or High Grade Serous Ovarian Cancer (HGSOC) after multiple prior therapies in cohorts treated with continuous or intermittent dosing schedules (Table 7A) and intermittent dosing schedule only (Table 7B).
(§4) A total of 127 heavily pretreated subjects with advanced solid tumors were treated with Azenosertib monotherapy at ascending dose levels of either continuous daily dosing or intermittent weekly administration schedules. Across all tumor types, 74 subjects were treated with continuous dosing schedules and 53 subjects were treated with intermittent dosing schedules.

[5] = Phase 1 Azenosertib monotherapy study, PK, safety and RP2D; format: in vivo, human
Protocol: as §1, §2, §3
In this example, a Phase 1 Azenosertib dose optimization study was carried out to evaluate the recommended phase II dose (RP2D) of Azenosertib monotherapy.
as §4

[6] = Half-life of Azenosertib; format: in vivo; details: plasma
[7] = intermittent dosing cohort, platinum-resistant ovarian cancer and USC, median follow-up 9.2 months

T1 sequence (P30291 whole entry): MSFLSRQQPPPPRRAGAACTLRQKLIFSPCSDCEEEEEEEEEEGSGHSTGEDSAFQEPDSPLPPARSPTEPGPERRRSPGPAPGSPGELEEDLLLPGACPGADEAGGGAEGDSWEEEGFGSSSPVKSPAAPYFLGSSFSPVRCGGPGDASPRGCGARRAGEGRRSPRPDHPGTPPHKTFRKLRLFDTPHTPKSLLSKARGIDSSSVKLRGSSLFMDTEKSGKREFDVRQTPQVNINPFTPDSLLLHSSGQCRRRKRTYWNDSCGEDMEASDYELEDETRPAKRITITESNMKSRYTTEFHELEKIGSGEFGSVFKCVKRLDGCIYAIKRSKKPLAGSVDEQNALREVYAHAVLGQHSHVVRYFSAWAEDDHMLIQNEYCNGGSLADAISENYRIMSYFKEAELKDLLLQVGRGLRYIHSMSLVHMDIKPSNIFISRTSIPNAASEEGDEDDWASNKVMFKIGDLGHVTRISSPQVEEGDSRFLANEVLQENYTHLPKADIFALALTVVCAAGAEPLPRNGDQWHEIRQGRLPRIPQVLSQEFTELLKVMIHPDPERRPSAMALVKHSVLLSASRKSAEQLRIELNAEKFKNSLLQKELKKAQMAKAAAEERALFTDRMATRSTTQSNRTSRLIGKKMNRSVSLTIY

## C=CCn1c(=O)c2cnc(Nc3ccc(N4CCN(C)CC4)cc3)nc2n1-c1ccc2c(n1)[C@@](O)(CC)CC2 [Azenosertib, (R)-2-allyl-1-(7-ethyl-7-hydroxy-6,7-dihydro-5H-cyclopenta[b]pyridin-2-yl)-6-((4-(4-methylpiperazin-1-yl)phenyl)amino)-1,2-dihydro-3H-pyrazolo[3,4-d]pyrimidin-3-one]
[1]; about 100 mg/kg 3 cycles 4/3 and 3/4 vs continuous 60 mg/kg, about 24 days
  tumor volume, intermittent vs continuous dosing: more efficacious
[1]; about 100 mg/kg, 3 cycles
  efficacy of 4 days on/3 days off vs 3 days on/4 days off: comparable in efficacy
[2]; dose of greater than about 300 mg once daily
  decrease of p-CDK1 levels: at least 50%
[2]; skin biopsies
  p-CDK1 levels in skin biopsies following treatment relative to baseline: decreases in p-CDK1 levels
[3]
  tumor growth inhibition (TGI): 52.6%
[4]; Azenosertib monotherapy, N=51, N with at least 1 scan=40
  overall Objective Response Rate (ORR %): 27.5%
[4]; USC and HGSOC subjects
  subjects with stable disease (SD) or partial response (PR) as best overall response: 95%
  subjects with target lesion reductions from baseline scans: 89%
[4]; [7]
  ORR %: 36.8%
  mPFS: 6.5 months
[4]; ovarian, early follow up of median 4.4 months
  median PFS: around 5.1 months
[5]; 400 mg QD 5/2 compared to 300 mg QD continuous administration
  steady state exposure AUC (0-24), intermittent RP2D vs continuous: more than doubled
[5]; Azenosertib monotherapy including intermittent dosing
  cases of febrile neutropenia and sepsis: no observed cases of febrile neutropenia and sepsis
[5]; daily (QD), 5 days on, 2 days off (5/2) weekly schedule
  RP2D as a monotherapy: 400 mg
[5]; intermittent cohorts
  discontinuations due to TRAEs: no reported discontinuation; also recorded: No discontinuations due to TRAEs
[5]; intermittent versus continuous dosing
  gastrointestinal, fatigue, and hematologic Grade 3 and 4 treatment-related adverse events (TRAEs): comparable or favorable versus continuous dosing
[5]; monotherapy
  safety and tolerability, intermittent vs continuous dosing: improved tolerability
[5]; monotherapy, Phase 1
  maximal concentration (Cmax) levels, intermittent vs continuous dosing regimen: higher maximal concentration (Cmax) levels
[6]
  half-life: 8 h
